Laboratory results as given in DBAASP.
In brackets after ≈: the same amount, converted by molar mass. Several values for one entry are separate records, joined by “and”; a condition that tells them apart may be missing. Identical values can stand only once. Each block holds one molecule with its values, some of them ahead of it.

Legend:
Assay in all cases: ≥ marks a high value that may be exact or a test limit, other limits are often not marked, values filed in µg/mL are converted to µM
[1] = system: Candida albicans ATCC 14053
[2] = system: Escherichia coli ATCC 11775
[3] = system: Micrococcus luteus ATCC 49732
[4] = system: Staphylococcus aureus ATCC 12600
Escherichia coli C600 = system: Escherichia coli C600
[5] = system: Staphylococcus aureus 209P
[6] = system: Bacillus subtilis VKM B-501
[7] = system: Staphylococcus aureus CCT 6538
[8] = system: Escherichia coli ATCC 25922
[9] = system: Bacillus thuringiensis ATCC 10792
[10] = system: Staphylococcus aureus CCT 2580
[11] = system: Streptococcus pneumoniae ATCC 11733
[12] = system: Escherichia coli CCT 1457
[13] = system: Streptococcus mutans AU159
[14] = system: Enterococcus hirae ATCC 10541
[15] = system: Salmonella enterica subsp. enterica serovar Typhimurium ATCC 14028
[16] = system: Salmonella enterica subsp. enterica serovar Choleraesuis ATCC 10708
[17] = system: Micrococcus luteus ATCC 4698
[18] = system: Pseudomonas aeruginosa ATCC 15422
[19] = system: Staphylococcus epidermidis ATCC 12228
[20] = system: Pseudomonas aeruginosa ATCC 13388
[21] = system: Staphylococcus aureus ATCC 25923
[22] = system: Bacillus cereus ATCC 11778
[23] = system: Enterococcus faecium CCT 5079
Penicillium expansum = system: Penicillium expansum
Aspergillus niger = system: Aspergillus niger
Escherichia coli UTI89 = system: Escherichia coli UTI89
[24] = system: Escherichia coli K12 MG1655
[25] = system: Staphylococcus epidermidis
[26] = system: Candida krusei CGMCC 2.1857
Candida albicans = system: Candida albicans
[27] = system: Salmonella enterica subsp. enterica serovar Pullorum ATCC 7913
[28] = system: Candida tropicalis CGMCC 2.1975
[29] = system: Staphylococcus aureus ATCC 43300
[30] = system: Candida parapsilosis CGMCC 2.3989
Escherichia coli 1005 = system: Escherichia coli 1005
[31] = system: Staphylococcus aureus ATCC 29213
[32] = system: Candida albicans CGMCC 2.2086

SMILES: CC(C)[C@H](NC(=O)[C@H](C)NC(=O)[C@@H](NC(=O)CNC(=O)[C@H](C)N)[C@@H](C)O)C(=O)N[C@@H](Cc1ccccc1)C(=O)N[C@@H](CCCCN)C(=O)O [AGTAVFK]
MIC [1]: ≥ 321 µM | MIC [2]: ≥ 107 µM | MIC [3]: ≥ 963 µM | MIC [4]: ≥ 107 µM

SMILES: CC(C)C[C@H](NC(=O)[C@H](CCCN=C(N)N)NC(=O)[C@H](CCCCN)NC(=O)[C@H](CCCCN)NC(=O)[C@H](CC(C)C)NC(=O)[C@H](CC(N)=O)NC(=O)[C@H](C)NC(=O)[C@H](Cc1ccccc1)NC(=O)[C@H](CCCN=C(N)N)NC(=O)[C@H](CCCN=C(N)N)NC(=O)[C@H](CCCCN)NC(=O)[C@H](Cc1ccccc1)NC(=O)[C@H](CO)NC(=O)[C@H](C)NC(=O)CNC(=O)[C@H](Cc1ccccc1)NC(=O)[C@H](CCCCN)NC(=O)[C@H](CCCCN)NC(=O)[C@H](Cc1ccccc1)NC(=O)[C@H](Cc1ccc(O)cc1)NC(=O)[C@H](CCC(=O)O)NC(=O)[C@H](CCCCN)NC(=O)[C@H](CCCN=C(N)N)NC(=O)[C@H](CCCCN)NC(=O)CNC(=O)[C@H](Cc1ccccc1)NC(=O)[C@H](Cc1ccccc1)NC(=O)CN)C(N)=O [GFFGKRKEYFKKFGASFKRRFANLKKRL]
MIC (Escherichia coli C600): 1.5 µM (≈ 5.18 µg/mL) | MIC [5]: 6 µM (≈ 20.7 µg/mL) | MIC [6]: 0.7 µM (≈ 2.42 µg/mL)

SMILES: CC[C@H](C)[C@H](NC(=O)[C@H](C)NC(=O)[C@H](CCCCN)NC(=O)[C@H](CCCN=C(N)N)NC(=O)CNC(=O)[C@H](Cc1ccccc1)NC(=O)[C@H](CCCCN)NC(=O)[C@H](CCCCN)NC(=O)[C@H](CCC(N)=O)NC(=O)[C@H](CC(C)C)NC(=O)[C@H](CCCCN)NC(=O)CNC(=O)[C@H](Cc1ccccc1)NC(=O)[C@H](CC(C)C)NC(=O)CN)C(=O)N[C@@H](CO)C(=O)N[C@@H](Cc1ccc(O)cc1)C(=O)N[C@@H](C)C(=O)N[C@H](C(=O)N[C@@H](CCCCN)C(=O)N[C@@H](CCCCN)C(=O)N[C@@H](C)C(=O)N[C@@H](CCCN=C(N)N)C(=O)NCC(=O)N[C@@H](CCCCN)C(=O)N[C@@H](Cc1cnc[nH]1)C(=O)O)C(C)C [GLFGKLQKKFGRKAISYAVKKARGKH]
MIC (Escherichia coli C600): 6 µM (≈ 17.5 µg/mL) | MIC [5]: ≥ 36 µM | MIC [6]: 1.5 µM (≈ 4.38 µg/mL)

SMILES: CC[C@H](C)[C@H](N)C(=O)N[C@@H](CC(N)=O)C(=O)N[C@@H](Cc1c[nH]c2ccccc12)C(=O)N[C@@H](CCCCN)C(=O)N[C@@H](CCCCN)C(=O)N[C@H](C(=O)N[C@@H](CCCCN)C(=O)N[C@@H](CCCCN)C(=O)N[C@@H](CCCCN)C(=O)N[C@H](C(=O)N[C@@H](C)C(=O)NCC(=O)N[C@@H](CCSC)C(=O)N[C@@H](CC(C)C)C(N)=O)C(C)C)[C@@H](C)CC [INWKKIKKKVAGML]
MIC [7]: 2.41 µM (≈ 4 µg/mL) | MIC [8]: 9.66 µM (≈ 16 µg/mL) | MIC [9]: 18.7 µM (≈ 31 µg/mL) | MIC [2]: 2.41 µM (≈ 4 µg/mL) | MIC [10]: 1.21 µM (≈ 2 µg/mL) | MIC [11]: 0.604 µM (≈ 0.999 µg/mL) | MIC [12]: 2.41 µM (≈ 4 µg/mL) | MIC [13]: 2.41 µM (≈ 4 µg/mL) | MIC [14]: 18.7 µM (≈ 31 µg/mL) | MIC [15]: 2.41 µM (≈ 4 µg/mL) | MIC [16]: 18.7 µM (≈ 31 µg/mL) | MIC [17]: 0.604 µM (≈ 0.999 µg/mL) | MIC [18]: 4.83 µM (≈ 8 µg/mL) | MIC [19]: 0.604 µM (≈ 0.999 µg/mL) | MIC [20]: 2.41 µM (≈ 4 µg/mL) | MIC [21]: 1.21 µM (≈ 2 µg/mL) | MIC [22]: 18.7 µM (≈ 31 µg/mL) | MIC [23]: 1.21 µM (≈ 2 µg/mL)

SMILES: CC(C)C[C@H](NC(=O)[C@H](Cc1ccccc1)NC(=O)[C@H](CCCN=C(N)N)NC(=O)[C@H](CCCN=C(N)N)NC(=O)[C@H](C)NC(=O)[C@H](Cc1c[nH]c2ccccc12)NC(=O)[C@H](Cc1c[nH]c2ccccc12)NC(=O)[C@H](C)NC(=O)[C@H](CCCN=C(N)N)NC(=O)[C@H](Cc1ccccc1)NC(=O)[C@H](Cc1ccccc1)NC(=O)[C@H](CCCCN)NC(=O)[C@@H](N)CCCCN)C(=O)N[C@@H](CCCCN)C(N)=O [KKFFRAWWARRFLK]
MIC (Penicillium expansum): 6.44 µM (≈ 12.5 µg/mL) | MIC (Aspergillus niger): 6.44 µM (≈ 12.5 µg/mL)

SMILES: CC[C@H](C)[C@H](NC(=O)[C@H](CCCCN)NC(=O)[C@H](CCC(N)=O)NC(=O)[C@H](Cc1c[nH]c2ccccc12)NC(=O)[C@@H](NC(=O)[C@H](CCCCN)NC(=O)[C@@H](N)CCCCN)[C@@H](C)CC)C(=O)N[C@@H](CCCCN)C(=O)N[C@@H](CC(N)=O)C(=O)N[C@@H](Cc1ccccc1)C(=O)N[C@@H](Cc1ccccc1)C(=O)N[C@@H](CCC(N)=O)C(=O)N[C@@H](CCCCN)C(=O)N[C@@H](CC(C)C)C(=O)O [KKIWQKIKNFFQKL]
MIC (Escherichia coli UTI89): 6.25 µM (≈ 11.6 µg/mL) | MIC [24]: 6.25 µM (≈ 11.6 µg/mL) | MIC [25]: 29 µM (≈ 53.6 µg/mL) | MIC [15]: 50 µM (≈ 92.5 µg/mL)

The remaining lines, values ahead:

MIC (Escherichia coli UTI89): ≥ 50 µM | MIC [24]: ≥ 50 µM | MIC [25]: 7.5 µM (≈ 14.2 µg/mL) | MIC [15]: 50 µM (≈ 94.6 µg/mL)
SMILES: CC[C@H](C)[C@H](NC(=O)[C@H](CCCCN)NC(=O)[C@H](CCC(N)=O)NC(=O)[C@H](Cc1c[nH]c2ccccc12)NC(=O)[C@@H](NC(=O)[C@H](CCCCN)NC(=O)[C@@H](N)CCCCN)[C@@H](C)CC)C(=O)N[C@@H](CCCCN)C(=O)N[C@@H](CCCN=C(N)N)C(=O)N[C@@H](Cc1ccccc1)C(=O)N[C@@H](Cc1ccccc1)C(=O)N[C@@H](CCC(N)=O)C(=O)N[C@@H](CCCCN)C(=O)N[C@@H](CC(C)C)C(=O)O [KKIWQKIKRFFQKL]

MIC [26]: 4 µM (≈ 5.51 µg/mL) | MIC [8]: 4 µM and > 2 µM | MIC (Candida albicans): 5.66 µM (≈ 7.79 µg/mL) | MIC [27]: 2 µM (≈ 2.76 µg/mL) | MIC [28]: 2 µM (≈ 2.76 µg/mL) | MIC [15]: 4 µM (≈ 5.51 µg/mL) | MIC [29]: 4 µM (≈ 5.51 µg/mL) | MIC [30]: 16 µM (≈ 22 µg/mL) | MIC (Escherichia coli 1005): 4 µM (≈ 5.51 µg/mL) | MIC [19]: 4 µM (≈ 5.51 µg/mL) | MIC [31]: 4 µM (≈ 5.51 µg/mL) | MIC [21]: 4 µM (≈ 5.51 µg/mL)
SMILES: NC(=O)[C@H](CCCN=C(N)N)NC(=O)[C@H](Cc1ccccc1)NC(=O)[C@H](CCCN=C(N)N)NC(=O)[C@H](Cc1ccccc1)NC(=O)[C@H](Cc1ccccc1)NC(=O)[C@H](Cc1ccccc1)NC(=O)[C@H](CCCN=C(N)N)NC(=O)[C@H](Cc1ccccc1)NC(=O)[C@@H](N)CCCN=C(N)N [RFRFFFRFR]

MIC [32]: 4 µM and 8 µM | MIC [26]: 2 µM (≈ 3.77 µg/mL) | MIC (Candida albicans): 4 µM (≈ 7.54 µg/mL) | MIC [27]: 2 µM (≈ 3.77 µg/mL) | MIC [28]: 2 µM (≈ 3.77 µg/mL) | MIC [15]: 4 µM (≈ 7.54 µg/mL) | MIC [29]: 4 µM (≈ 7.54 µg/mL) | MIC [30]: 8 µM (≈ 15.1 µg/mL) | MIC (Escherichia coli 1005): 4 µM (≈ 7.54 µg/mL) | MIC [19]: 4 µM (≈ 7.54 µg/mL) | MIC [31]: 2 µM (≈ 3.77 µg/mL) | MIC [21]: 4 µM (≈ 7.54 µg/mL)
SMILES: NC(=O)[C@H](CCCN=C(N)N)NC(=O)[C@H](CCCN=C(N)N)NC(=O)[C@H](Cc1c[nH]c2ccccc12)NC(=O)[C@H](CCCN=C(N)N)NC(=O)[C@H](Cc1c[nH]c2ccccc12)NC(=O)[C@H](Cc1c[nH]c2ccccc12)NC(=O)[C@H](Cc1c[nH]c2ccccc12)NC(=O)[C@H](CCCN=C(N)N)NC(=O)[C@H](Cc1c[nH]c2ccccc12)NC(=O)[C@H](CCCN=C(N)N)NC(=O)[C@@H](N)CCCN=C(N)N [RRWRWWWRWRR]
